Source: patent US8119645B2, “Fungicide hydroximoyl-tetrazole derivatives” (Bayer Cropscience AG, priority 2006, dated 2012)

assay: logP by reversed-phase HPLC (EEC Directive 79/831 Annex V.A8); format: physicochemical; details: not given

chromatographic logP	SMILES
3.46	Cn1nnnc1/C(=N/OCc1cccc(N2C(=O)c3ccccc3C2=O)n1)c1csc(-c2ccccc2)n1 [Compound 173, O-(2-Phtalimidopyridin-6-yl)methyl-(2-phenyl-1,3-thiazol-4-yl)-(1-methyitetrazol-5-yl)methanone oxime]
1.57	Cn1nnnc1/C(=N/OCc1cccc(N)n1)c1csc(-c2ccccc2)n1 [Compound 174, O-(2-Aminopyridin-6-yl)methyl-(2-phenyl-1,3-thiazol-4-yl)-(1-methyltetrazol-5-yl)methanone oxime]
4.06	CCCCCC(=O)Nc1cccc(CO/N=C(\c2csc(-c3ccccc3)n2)c2nnnn2C)n1 [Compound 178, O-(2-Pentylcarbonylaminopyridin-6-yl)methyl-(2-phenyl-1,3-thiazol-4-yl)-(1-methyitetrazol-5-yl)methanone oxime]

same assay, conditions: HPLC C18, 40° C., 0.1% aqueous formic acid / acetonitrile gradient

SMILES	LogP
Cn1nnnc1C(=NOCc1cccc(NC(=O)Cc2ccccc2)n1)c1csc(-c2ccccc2)n1 [Compound 175]	3.72
Cn1nnnc1C(=NOCc1cccc(NC(=O)C(C)(C)C)n1)c1csc(-c2ccccc2)n1 [Compound 176]	3.7
CCCCCOC(=O)Nc1cccc(CON=C(c2csc(-c3ccccc3)n2)c2nnnn2C)n1 [Compound 177]	4.56
